Results reported in the supplement of paper PMC10307832.

Tests used:
Assay in all cases: relative viability (nuclei count vs DMSO), 5 days (fraction); higher = more cells survive
XMD13-2 + Linsitinib = compound: C1CC1C(=O)NC2=NNC3=C2C=CC(=C3)C4=CC(=CC=C4)C(=O)NC5CC5 [XMD13-2] + C[C@]1(O)C[C@@H](c2nc(-c3ccc4ccc(-c5ccccc5)nc4c3)c3c(N)nccn32)C1 [Linsitinib] (partner 1 µM)
Procedure, shortened: (§1)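 Relative viability is defined as nuclei in treated wells over nuclei in vehicle wells. Duplicate plates were run and medians reported. Lung cancer cell lines in 1536-well plates were dosed by pin tool one day after seeding, with one drug or with a fixed anchor-drug dose plus five library-drug doses (not always all listed) in √10 steps, and nuclei were counted after 5 days.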

Dasatinib + Luminespib = compound: Cc1nc(Nc2ncc(C(=O)Nc3c(C)cccc3Cl)s2)cc(N2CCN(CCO)CC2)n1 [Dasatinib] + CCNC(=O)c1noc(-c2cc(C(C)C)c(O)cc2O)c1-c1ccc(CN2CCOCC2)cc1 [Luminespib] (partner 0.01 µM)
Procedure, shortened: as §1

Dasatinib + Tozasertib = compound: Cc1nc(Nc2ncc(C(=O)Nc3c(C)cccc3Cl)s2)cc(N2CCN(CCO)CC2)n1 [Dasatinib] + Cc1cc(Nc2cc(N3CCN(C)CC3)nc(Sc3ccc(NC(=O)C4CC4)cc3)n2)n[nH]1 [Tozasertib] (partner 0.1 µM)
Procedure, shortened: as §1

XMD13-2 + Olaparib = compound: C1CC1C(=O)NC2=NNC3=C2C=CC(=C3)C4=CC(=CC=C4)C(=O)NC5CC5 [XMD13-2] + O=C(c1cc(Cc2n[nH]c(=O)c3ccccc23)ccc1F)N1CCN(C(=O)C2CC2)CC1 [Olaparib] (partner 8 µM)
Procedure, shortened: as §1

| Cell Line | relative viability (XMD13-2 + Linsitinib; first compound 0.05 µM) | relative viability (XMD13-2 + Linsitinib; first compound 0.1581 µM) | relative viability (XMD13-2 + Linsitinib; first compound 0.5 µM) | relative viability (XMD13-2 + Linsitinib; first compound 1.581 µM) | relative viability (XMD13-2 + Linsitinib; first compound 5 µM) | relative viability (Dasatinib + Luminespib; first compound 0.005 µM) | relative viability (Dasatinib + Luminespib; first compound 0.01581 µM) | relative viability (Dasatinib + Luminespib; first compound 0.05 µM) | relative viability (Dasatinib + Luminespib; first compound 0.1581 µM) | relative viability (Dasatinib + Luminespib; first compound 0.5 µM) | relative viability (Dasatinib + Tozasertib; first compound 0.005 µM) | relative viability (Dasatinib + Tozasertib; first compound 0.01581 µM) | relative viability (Dasatinib + Tozasertib; first compound 0.05 µM) | relative viability (Dasatinib + Tozasertib; first compound 0.1581 µM) | relative viability (Dasatinib + Tozasertib; first compound 0.5 µM) | relative viability (XMD13-2 + Olaparib; first compound 0.05 µM) | relative viability (XMD13-2 + Olaparib; first compound 0.1581 µM) | relative viability (XMD13-2 + Olaparib; first compound 0.5 µM) | relative viability (XMD13-2 + Olaparib; first compound 1.581 µM) | relative viability (XMD13-2 + Olaparib; first compound 5 µM) |
| --- | --- | --- | --- | --- | --- | --- | --- | --- | --- | --- | --- | --- | --- | --- | --- | --- | --- | --- | --- | --- |
| 201T | 1.06 | 1.08 | 1.01 | 0.957 | 0.908 | 0.998 | 0.81 | 0.836 | 0.548 | 0.378 | 0.877 | 0.746 | 0.751 | 0.606 | 0.425 | 0.851 | 0.866 | 0.856 | 0.811 | 0.876 |
| A549 | 0.856 | 0.513 | 0.579 | 0.677 | 0.674 | – | – | – | – | – | – | – | – | – | – | 0.415 | 0.185 | 0.453 | 0.358 | 0.437 |
| A-427 | 1.11 | 1.14 | 1.18 | 1.09 | 1 | 0.742 | 0.704 | 0.739 | 0.673 | 0.486 | 0.223 | 0.214 | 0.176 | 0.142 | 0.156 | 0.814 | 0.688 | 0.728 | – | 0.485 |
| ABC-1 | 0.918 | 0.874 | 1.04 | 0.704 | 0.86 | 0.562 | 0.52 | 0.314 | 0.411 | 0.293 | 0.174 | 0.217 | 0.172 | 0.15 | 0.154 | 0.925 | 0.869 | 1.08 | – | 0.688 |
| Calu-6 | 0.949 | 0.996 | – | 0.912 | 0.913 | – | – | – | – | – | – | – | – | – | – | 0.615 | 0.586 | – | 0.605 | 0.512 |
| ChaGo-K-1 | – | – | – | – | – | 0.555 | 0.543 | 0.591 | 0.486 | 0.366 | 0.23 | 0.203 | 0.207 | 0.21 | 0.186 | 0.439 | 0.436 | 0.438 | 0.387 | 0.358 |
| EBC-1 | 0.889 | 0.966 | 1.08 | 0.874 | 0.766 | – | – | – | – | – | – | – | – | – | – | 0.768 | 0.78 | 0.837 | 0.545 | 0.277 |
| HCC-78 | 0.696 | 0.587 | 0.603 | 0.548 | 0.461 | – | – | – | – | – | 0.47 | 0.371 | 0.395 | 0.242 | 0.181 | 0.895 | 0.781 | 0.812 | 0.667 | 0.733 |
| HCC-366 | 0.809 | 0.54 | 0.749 | 0.647 | 0.736 | – | – | – | – | – | 0.115 | 0.109 | 0.109 | 0.0407 | 0.0371 | 0.448 | 0.328 | 0.444 | 0.355 | 0.358 |
| IA-LM | 0.627 | 0.56 | 0.582 | 0.683 | 0.713 | – | – | – | – | – | – | – | – | – | – | 0.832 | 0.903 | 0.787 | 0.707 | 0.635 |
| NCI-H522 | – | – | – | – | – | 1.16 | 0.913 | 1.08 | 0.775 | 0.923 | 0.568 | 0.483 | 0.539 | 0.466 | 0.437 | 0.632 | 0.7 | 0.618 | 0.473 | 0.65 |
| NCI-H1299 | 0.982 | 1.03 | 1.15 | 0.997 | 1.03 | – | – | – | – | – | – | – | – | – | – | 0.953 | 0.991 | 0.959 | 0.972 | 1 |
| NCI-H1563 | 1.22 | 1.27 | 1.16 | 1.12 | 1.31 | 0.546 | 0.466 | 0.495 | 0.423 | 0.405 | – | – | – | – | – | – | – | – | – | – |
| NCI-H1623 | – | – | – | – | – | 0.414 | 0.401 | 0.49 | 0.412 | 0.319 | 0.447 | 0.329 | 0.442 | 0.351 | 0.363 | – | – | – | – | – |
| NCI-H1648 | – | – | – | – | – | – | – | – | – | – | 0.624 | 0.545 | 0.327 | 0.233 | 0.14 | 0.983 | – | 0.841 | 0.762 | 0.509 |
| NCI-H1650 | – | – | – | – | – | 0.228 | 0.199 | 0.236 | 0.177 | 0.187 | 0.356 | 0.302 | 0.342 | 0.233 | 0.153 | 0.78 | 0.903 | 0.809 | 0.795 | 0.827 |
| NCI-H1703 | 0.637 | 1.23 | 0.805 | – | 0.74 | – | – | – | – | – | – | – | – | – | – | 0.503 | 0.417 | 0.38 | – | 0.372 |
| NCI-H1792 | 0.631 | 0.519 | 0.586 | 0.661 | 0.515 | 0.467 | 0.306 | 0.244 | 0.249 | 0.2 | – | – | – | – | – | 0.628 | 0.385 | 0.428 | 0.383 | 0.573 |
| NCI-H2170 | – | – | – | – | – | 0.497 | 0.482 | 0.597 | 0.315 | 0.273 | 0.698 | 0.622 | 0.722 | 0.564 | 0.247 | 0.663 | 0.554 | 0.631 | 0.581 | 0.601 |
| NCI-H2342 | – | – | – | – | – | 0.769 | 0.548 | 0.439 | 0.437 | 0.281 | 0.524 | 0.427 | 0.333 | 0.356 | 0.218 | 0.424 | 0.383 | 0.386 | 0.403 | 0.463 |
| SW 900 | – | – | – | – | – | 0.141 | 0.154 | 0.159 | 0.111 | 0.103 | 0.609 | 0.564 | 0.607 | 0.46 | 0.359 | 0.772 | 0.853 | 0.922 | 0.753 | 0.806 |
